SMILES strings stand for the structures. ≈ marks a conversion by molar mass, not a printed value.

The results in this text go back to publication PMC6268315, “Investigating the Spectrum of Biological Activity of Substituted Quinoline-2-Carboxamides and Their Isosteres ^†” (Molecules, 2012).

For this test, the system named is Mycobacterium tuberculosis CUH071. The experiment in a line: In vitro antimycobacterial evaluation (alamarBlue). The format is cell-based. As to conditions: 168 h, clinical isolate CUH071 with partial INH and PZA resistance, 7 days, read-out: MIC/IC90 M. tuberculosis. Background: Resazurin is reduced to fluorescent resorufin, in cell work by metabolically active cells.
On to `O=C(NC1CCCCCC1)c1ccc2ccccc2n1` [Compound 7, N-Cycloheptylquinoline-2-carboxamide], for which the MIC was 111 µM (≈ 29.8 µg/mL). Then `Cc1cccc(NC(=O)c2ccc3ccccc3n2)c1` [Compound 14b, N-(3-Methylphenyl)quinoline-2-carboxamide], with 469 µM (≈ 123 µg/mL); and `COc1ccccc1NC(=O)c1ccc2ccccc2c1` [Compound 32a, N-(2-Methoxyphenyl)-2-naphthamide], with 901 µM (≈ 250 µg/mL); and `O=C(c1ccc2ccccc2c1)N1CCCC1` [Compound 22, 1-(2-Naphthoyl)pyrrolidine], with 554 µM (≈ 125 µg/mL). For `CC(C)NC(=O)c1ccc2ccccc2n1` [Compound 1, N-Isopropylquinoline-2-carboxamide], the MIC was found to be 280 µM (≈ 60 µg/mL). Consider `O=C(NC1CCCC1)c1ccc2ccccc2n1` [Compound 5, N-Cyclopentylquinoline-2-carboxamide], for which the MIC came out at 491 µM (≈ 118 µg/mL). For the compound `O=C(NCCc1ccccc1)c1ccc2ccccc2n1` [Compound 11, N-(2-Phenylethyl)quinoline-2-carboxamide], the MIC was 109 µM (≈ 30.1 µg/mL). Take `CCCCCCCCCCCCNC(=O)c1ccc2ccccc2n1` [Compound 2, N-Dodecylquinoline-2-carboxamide]: the MIC was 367 µM (≈ 125 µg/mL). For `NNC(=O)c1ccncc1` [INH, isoniazid, reference compound], the MIC is over 729 µM.

With `O=C(c1ccc2ccccc2n1)N1CCCC1` [Compound 3, 2-(Pyrrolidin-1-ylcarbonyl)quinoline], the MIC turned out to be 552 µM (≈ 125 µg/mL). The value for `NC(=O)c1cnccn1` [PZA, pyrazinamide, reference compound] was over 812 µM; that for `O=C(NC1CCCCC1)c1ccc2ccccc2n1` [Compound 6, N-Cyclohexylquinoline-2-carboxamide] was 125 µM (≈ 31.8 µg/mL).
